The target of assay [1] is T1, Amine oxidase [flavin-containing] A (Rattus norvegicus, UniProt P21396).
T1 sequence (P21396 whole entry): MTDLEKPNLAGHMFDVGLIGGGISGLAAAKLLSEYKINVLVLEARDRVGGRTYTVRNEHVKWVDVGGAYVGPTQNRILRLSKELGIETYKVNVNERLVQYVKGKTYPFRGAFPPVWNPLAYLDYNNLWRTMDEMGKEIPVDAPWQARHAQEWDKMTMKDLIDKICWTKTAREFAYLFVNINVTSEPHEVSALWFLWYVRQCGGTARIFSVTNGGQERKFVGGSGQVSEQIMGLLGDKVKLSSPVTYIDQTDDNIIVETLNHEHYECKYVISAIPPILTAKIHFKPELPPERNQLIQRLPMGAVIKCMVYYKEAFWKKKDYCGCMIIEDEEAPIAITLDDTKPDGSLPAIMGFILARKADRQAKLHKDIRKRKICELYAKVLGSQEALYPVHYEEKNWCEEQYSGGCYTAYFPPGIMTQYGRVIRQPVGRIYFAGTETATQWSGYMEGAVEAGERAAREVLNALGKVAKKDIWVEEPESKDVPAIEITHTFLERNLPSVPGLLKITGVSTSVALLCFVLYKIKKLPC
As to the kind of experiment: Monoamine Oxidase Assay. The note with it: pH 7.4; 38 °C.

The target of assay [2] is T2, Amine oxidase [flavin-containing] B (Rattus norvegicus, UniProt P19643).
T2 sequence (P19643 whole entry): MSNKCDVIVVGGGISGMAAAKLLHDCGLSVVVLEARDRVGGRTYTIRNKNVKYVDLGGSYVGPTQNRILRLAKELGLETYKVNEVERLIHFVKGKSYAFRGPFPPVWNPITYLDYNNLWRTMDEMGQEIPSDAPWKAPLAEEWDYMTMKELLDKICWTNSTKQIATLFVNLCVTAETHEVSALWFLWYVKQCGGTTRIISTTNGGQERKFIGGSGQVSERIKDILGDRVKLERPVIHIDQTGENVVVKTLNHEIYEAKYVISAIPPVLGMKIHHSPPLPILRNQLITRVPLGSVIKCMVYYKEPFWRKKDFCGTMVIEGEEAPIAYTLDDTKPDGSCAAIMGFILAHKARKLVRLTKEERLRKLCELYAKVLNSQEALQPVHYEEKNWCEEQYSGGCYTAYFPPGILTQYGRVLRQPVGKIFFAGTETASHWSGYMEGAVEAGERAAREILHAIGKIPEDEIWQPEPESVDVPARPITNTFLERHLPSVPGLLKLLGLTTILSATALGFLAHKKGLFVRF
Nature of the assay: Monoamine Oxidase Assay. Conditions: pH 7.4; 38 °C.

Assay [3] deals with Carboxylic ester hydrolase (Equus caballus, UniProt Q9N1N9). As to the kind of experiment: AChE and BuChE Inhibition Assay. Conditions: pH 8; 25 °C. On the procedure: (§1) This spectrophotometric assay is based on the reaction of 5,5-dithio-bis(2-nitrobenzoic)acid (DTNB) with thiocholine to yield a colored product. Shimadzu (Kyoto, Japan) UV-1700 UV-vis spectrophotometer was used to record the measurements. The enzyme solutions were prepared at 2.5 units/mL concentrationin 1% gelatin solution. BChE/AChE and compound solutions (50 μL each) in 2% DMSO at 10^-1-10^-6 mM concentration were added to 3 mL phosphate buffer (pH 8 &plusnm; 0.1)followed by incubation for 5 min at 25 °C. The reaction was commenced by the addition of acetylthiocholine iodide (ATC) (10 μL) and DTNB (50 μL) to the enzyme-inhibitor mixture. […] The blank reading contained 10 μL substrate, 50 μL DTNB, 50 μL (2%) DMSO, and 3 mL buffer. The reaction was performed in triplicate.

Another assay addresses Acetylcholinesterase (Electrophorus electricus, UniProt O42275). Nature of the assay: AChE and BuChE Inhibition Assay. The note with it: pH 8; 25 °C. The protocol: as §1

Some results are limits rather than exact numbers.

Carboxylic ester hydrolase, sequence (Q9N1N9 whole entry): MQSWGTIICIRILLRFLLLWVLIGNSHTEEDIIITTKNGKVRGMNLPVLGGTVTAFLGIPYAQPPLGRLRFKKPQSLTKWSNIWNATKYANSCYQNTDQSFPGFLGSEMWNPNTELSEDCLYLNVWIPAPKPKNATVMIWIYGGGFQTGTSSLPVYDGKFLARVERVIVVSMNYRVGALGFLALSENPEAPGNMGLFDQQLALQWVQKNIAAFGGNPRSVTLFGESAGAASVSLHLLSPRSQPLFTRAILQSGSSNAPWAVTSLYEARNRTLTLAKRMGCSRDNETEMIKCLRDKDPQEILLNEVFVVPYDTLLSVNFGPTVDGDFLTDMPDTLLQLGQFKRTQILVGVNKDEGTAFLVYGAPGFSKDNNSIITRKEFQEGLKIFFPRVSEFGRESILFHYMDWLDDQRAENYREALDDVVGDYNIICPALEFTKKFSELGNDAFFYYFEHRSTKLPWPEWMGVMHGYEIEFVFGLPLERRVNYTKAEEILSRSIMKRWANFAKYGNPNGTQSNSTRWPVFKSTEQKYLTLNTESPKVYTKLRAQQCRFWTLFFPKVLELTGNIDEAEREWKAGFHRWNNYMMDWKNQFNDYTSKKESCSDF
Acetylcholinesterase, sequence (O42275 whole entry): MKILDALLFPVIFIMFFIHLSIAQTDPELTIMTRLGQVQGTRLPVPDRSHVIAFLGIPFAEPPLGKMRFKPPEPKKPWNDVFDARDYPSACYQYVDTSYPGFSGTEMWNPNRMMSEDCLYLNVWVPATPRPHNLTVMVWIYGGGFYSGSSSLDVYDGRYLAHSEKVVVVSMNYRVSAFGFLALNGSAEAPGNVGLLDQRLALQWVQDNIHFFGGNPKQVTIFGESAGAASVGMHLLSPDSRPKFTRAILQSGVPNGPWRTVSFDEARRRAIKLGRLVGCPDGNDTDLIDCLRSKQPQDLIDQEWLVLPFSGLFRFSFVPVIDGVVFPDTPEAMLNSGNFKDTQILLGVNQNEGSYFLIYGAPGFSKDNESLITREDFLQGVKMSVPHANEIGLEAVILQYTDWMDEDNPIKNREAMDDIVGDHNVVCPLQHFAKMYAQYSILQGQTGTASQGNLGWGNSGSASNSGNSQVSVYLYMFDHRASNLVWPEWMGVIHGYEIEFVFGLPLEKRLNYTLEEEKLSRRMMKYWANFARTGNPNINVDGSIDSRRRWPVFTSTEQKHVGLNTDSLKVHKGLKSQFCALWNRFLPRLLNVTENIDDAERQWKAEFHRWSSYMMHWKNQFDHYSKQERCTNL

For `COc1cc(/C=C2\CCc3ccc(Cl)cc3C2=O)c(Br)c(OC)c1OC` [(2E)-2-[(2-bromo-3,4,5-trimethoxyphenyl)methylidene]-7-chloro-1,2,3,4-tetrahydronaphthalen-1-one (3l)], the IC50 in assay [1] was above 100 µM; in assay [2], above 100 µM; in assay [3], 48.9 µM; against Acetylcholinesterase, above 100 µM.
For `COc1cc2c(cc1OC)C(=O)/C(=C/c1ccc(OC)c(OC)c1Cl)CC2` [(2E)-2-[(2-chloro-3,4-dimethoxyphenyl)methylidene]-6,7-dimethoxy-1,2,3,4-tetrahydronaphthalen-1-one (3t)], the IC50 in assay [1] is above 100 µM; in assay [2] it was 5.4 µM; in assay [3] it was above 100 µM; on Acetylcholinesterase it was 27.2 µM.
`COc1cccc2c1CC/C(=C\c1ccc(OC)c(OC)c1Cl)C2=O` [(2E)-2-[(2-chloro-3,4-dimethoxyphenyl)methylidene]-5-methoxy-1,2,3,4-tetrahydronaphthalen-1-one (3q)]: the IC50 in assay [1] was above 100 µM; in assay [2], 63.7 µM; in assay [3], above 100 µM; at Acetylcholinesterase, 81.2 µM.
With `COc1cc2c(cc1OC)C(=O)/C(=C/c1cc(OC)c(OC)c(OC)c1Br)CC2` [(2E)-2-[(2-bromo-3,4,5-trimethoxyphenyl)methylidene]-6,7-dimethoxy-1,2,3,4-tetrahydronaphthalen-1-one (3u)], the IC50 in assay [1] is above 100 µM; in assay [2], 2.9 µM; in assay [3], above 100 µM; against Acetylcholinesterase, 4.5 µM.
For `COc1ccc(/C=C2\CCc3ccc(Br)cc3C2=O)c(Cl)c1OC` [(2E)-7-bromo-2-[(2-chloro-3,4-dimethoxyphenyl)methylidene]-1,2,3,4-tetrahydronaphthalen-1-one (3z)], the IC50 in assay [1] is above 100 µM; in assay [2] it was 56.4 µM; in assay [3], above 100 µM; against Acetylcholinesterase, above 100 µM.
Regarding `COc1cc2c(cc1OC)C(=O)/C(=C/c1cccc(OC)c1Cl)CC2` [(2E)-2-[(2-chloro-3-methoxyphenyl)methylidene]-6,7-dimethoxy-1,2,3,4-tetrahydronaphthalen-1-one (3s)], the 50% inhibitory concentration (IC50) in assay [1] is above 100 µM; in assay [2] it was 7.2 µM; in assay [3] it was above 100 µM; on Acetylcholinesterase, 29.5 µM.
Turning to `COc1cc(/C=C2\CCc3ccc(F)cc3C2=O)c(Br)c(OC)c1OC` [(2E)-2-[(2-bromo-3,4,5-trimethoxyphenyl)methylidene]-7-fluoro-1,2,3,4-tetrahydronaphthalen-1-one (3ad)], the IC50 is 10.9 µM in assay [1], 1.2 µM in assay [2], 89.4 µM in assay [3] and above 100 µM on Acetylcholinesterase.
For the molecule `COc1cccc(/C=C2\CCc3ccc(F)cc3C2=O)c1Cl` [(2E)-2-[(2-chloro-3-methoxyphenyl)methylidene]-7-fluoro-1,2,3,4-tetrahydronaphthalen-1-one (3ab)], the IC50 in assay [1] is 19.6 µM; in assay [2], 6.9 µM; in assay [3], above 100 µM; against Acetylcholinesterase, above 100 µM.
As to `COc1ccc(/C=C2\CCc3ccc(F)cc3C2=O)c(Cl)c1OC` [(2E)-2-[(2-chloro-3,4-dimethoxyphenyl)methylidene]-7-fluoro-1,2,3,4-tetrahydronaphthalen-1-one (3ac)], the IC50 in assay [1] was 17.2 µM; in assay [2], 2.9 µM; in assay [3], above 100 µM; on Acetylcholinesterase it was above 100 µM.

One may read the IC50 as the concentration that inhibits the measured activity by half. Low values mean inhibition by little substance, high ones a need for much substance.
